Measured values published in PubChem BioAssay AID248 (DTP/NCI, 2004).
Values joined by “and” are separate entries in the source; they are usually repeats but may differ in a detail not shown here. Equal values may be shown once. Toxic doses and inconclusive results are not listed. Peptide text beside a SMILES is read from it. * marks the point of attachment. Trt = c1ccc(C(c2ccccc2)(c2ccccc2)*)cc1; Boc = CC(C)(C)OC(=O)*

Test system: L1210 leukemia ip in BDF1 mice, survival T/C
Test: NCI In Vivo Anticancer Drug Screen. Data for tumor model L1210 Leukemia (intraperitoneal) in B6D2F1 (BDF1) mice
Settings: endpoint: mean survival time, higher = longer survival
In short: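 Mice bearing the transplanted tumor received compound or vehicle. Survival of the treated group was divided by that of the vehicle-treated control group to give the ratio.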

[1] = dose: 50.0 mg/kg/injection, schedule: Q01DX009 (ip), vehicle: saline
[2] = dose: 100.0 mg/kg/injection, schedule: Q01DX001 (ip), vehicle: carboxymethylcellulose (CMC)
[3] = dose: 100.0 mg/kg/injection, schedule: Q01DX009 (ip), vehicle: saline
[4] = dose: 200.0 mg/kg/injection, schedule: Q01DX009 (ip), vehicle: saline
[5] = dose: 400.0 mg/kg/injection, schedule: Q01DX001 (ip), vehicle: carboxymethylcellulose (CMC)
[6] = dose: 100.0 mg/kg/injection, schedule: Q01DX Z (ip), vehicle: methylcellulose (MC)
[7] = dose: 100.0 mg/kg/injection, schedule: Q01DX009 (ip), vehicle: Klucel (hydroxypropylcellulose) (HPC)
[8] = dose: 200.0 mg/kg/injection, schedule: Q01DX009 (ip), vehicle: Klucel (hydroxypropylcellulose) (HPC)
[9] = dose: 400.0 mg/kg/injection, schedule: Q01DX009 (ip), vehicle: Klucel (hydroxypropylcellulose) (HPC)
[10] = dose: 100.0 mg/kg/injection, schedule: Q04DX003 (ip), vehicle: saline with Tween-80
[11] = dose: 100.0 mg/kg/injection, schedule: Q01DX001 (ip), vehicle: saline
[12] = dose: 200.0 mg/kg/injection, schedule: Q01DX001 (ip), vehicle: saline
[13] = dose: 400.0 mg/kg/injection, schedule: Q01DX001 (ip), vehicle: saline
[14] = dose: 50.0 mg/kg/injection, schedule: Q01DX009 (ip), vehicle: Klucel (hydroxypropylcellulose) (HPC)
[15] = dose: 200.0 mg/kg/injection, schedule: Q04DX003 (ip), vehicle: saline with Tween-80
[16] = dose: 50.0 mg/kg/injection, schedule: Q01DX009 (ip), vehicle: saline with Tween-80
[17] = dose: 200.0 mg/kg/injection, schedule: Q01DX009 (ip), vehicle: saline with Tween-80
[18] = dose: 400.0 mg/kg/injection, schedule: Q04DX003 (ip), vehicle: saline with Tween-80
[19] = dose: 100.0 mg/kg/injection, schedule: Q01DX009 (ip), vehicle: saline with Tween-80

Structure (SMILES): COC1C(CO)OC(n2cnc3c(=S)nc(N)[nH]c32)C1O (configuration not stated)
- T/C (dose: 25.0 mg/kg/injection, schedule: Q01DX009 (ip), vehicle: carboxymethylcellulose (CMC)): 105 % of control
- T/C (dose: 25.0 mg/kg/injection, schedule: Q01DX009 (ip), vehicle: saline): 100 % of control
- T/C (dose: 50.0 mg/kg/injection, schedule: Q01DX009 (ip), vehicle: carboxymethylcellulose (CMC)): 103 % of control
- T/C [1]: 116 % of control
- T/C [2]: 111 % of control
- T/C [3]: 157 % of control
- T/C (dose: 200.0 mg/kg/injection, schedule: Q01DX009 (ip), vehicle: carboxymethylcellulose (CMC)): 155 % of control
- T/C [4]: 168 % of control
- T/C [5]: 154 % of control and 158 % of control

Structure (SMILES): CSc1nc(N)cc(C(N)=O)n1
- T/C [6]: 101 % of control

Structure (SMILES): ClC(=C(c1ccccc1)c1ccccc1)c1ccccc1
- T/C [7]: 92 % of control
- T/C (dose: 100.0 mg/kg/injection, schedule: Q04DX003 (ip), vehicle: Klucel (hydroxypropylcellulose) (HPC)): 94 % of control
- T/C [8]: 96 % of control
- T/C (dose: 200.0 mg/kg/injection, schedule: Q04DX003 (ip), vehicle: Klucel (hydroxypropylcellulose) (HPC)): 92 % of control
- T/C [9]: 95 % of control
- T/C (dose: 400.0 mg/kg/injection, schedule: Q04DX003 (ip), vehicle: Klucel (hydroxypropylcellulose) (HPC)): 95 % of control

Structure (SMILES): COc1ccc(Br)cc1C1OC(=O)c2c(OC)c(OC)cc(O)c21 (configuration not stated)
- T/C (dose: 100.0 mg/kg/injection, schedule: Q01DX001 (ip), vehicle: Klucel (hydroxypropylcellulose) (HPC)): 96 % of control
- T/C (dose: 200.0 mg/kg/injection, schedule: Q01DX001 (ip), vehicle: Klucel (hydroxypropylcellulose) (HPC)): 98 % of control
- T/C (dose: 400.0 mg/kg/injection, schedule: Q01DX001 (ip), vehicle: Klucel (hydroxypropylcellulose) (HPC)): 94 % of control

Structure (SMILES): CCCCCCCCCCCC(=O)c1ccccc1
- T/C [7]: 86 % of control
- T/C [8]: 91 % of control
- T/C [9]: 94 % of control

Structure (SMILES): CC(C)(C)OC(=O)NCCCCC(NC(=O)CNC(=O)C(CSC(c1ccccc1)(c1ccccc1)c1ccccc1)NC(=O)OC(C)(C)C)C(=O)O (configuration not stated) (Boc-Cys(Trt)-Gly-Lys(Boc)-OH; configuration not given here)
- T/C (dose: 25.0 mg/kg/injection, schedule: Q04DX003 (ip), vehicle: saline with Tween-80): 96 % of control
- T/C (dose: 50.0 mg/kg/injection, schedule: Q04DX003 (ip), vehicle: saline with Tween-80): 98 % of control
- T/C [10]: 94 % of control

Structure (SMILES): O=C1CCC(=O)N1C(=O)c1ccccc1
- T/C [6]: 104 % of control
- T/C (dose: 150.0 mg/kg/injection, schedule: Q01DX Z (ip), vehicle: methylcellulose (MC)): 102 % of control
- T/C (dose: 225.0 mg/kg/injection, schedule: Q01DX Z (ip), vehicle: methylcellulose (MC)): 95 % of control

Structure (SMILES): COc1ccc(CCNC(=O)Cc2ccc([N+](=O)[O-])cc2)cc1OC
- T/C [2]: 89 % of control
- T/C (dose: 200.0 mg/kg/injection, schedule: Q01DX001 (ip), vehicle: carboxymethylcellulose (CMC)): 98 % of control
- T/C [5]: 93 % of control

Structure (SMILES): O=c1[nH]nc(SCc2ccccc2)c(=O)[nH]1
- T/C [11]: 108 % of control
- T/C [12]: 92 % of control
- T/C [13]: 109 % of control

Structure (SMILES): Cc1cc(C#N)n(O)c1
- T/C [14]: 103 % of control
- T/C [7]: 100 % of control
- T/C [8]: 101 % of control

Structure (SMILES): O=C(O)C(Cc1ccc(O)cc1)NC(=O)N(c1ccccc1)c1ccccc1 (configuration not stated)
- T/C [11]: 95 % of control
- T/C [12]: 103 % of control
- T/C [13]: 106 % of control

Structure (SMILES): Cc1ccc(S(=O)(=O)OCC2C(COS(=O)(=O)c3ccc(C)cc3)C3C=CC2C32CC2)cc1 (configuration not stated)
- T/C (dose: 100.0 mg/kg/injection, schedule: Q04DX002 (ip), vehicle: Klucel (hydroxypropylcellulose) (HPC)): 105 % of control
- T/C (dose: 200.0 mg/kg/injection, schedule: Q04DX002 (ip), vehicle: Klucel (hydroxypropylcellulose) (HPC)): 110 % of control
- T/C (dose: 400.0 mg/kg/injection, schedule: Q04DX002 (ip), vehicle: Klucel (hydroxypropylcellulose) (HPC)): 102 % of control

Structure (SMILES): COc1cc2cncc(CC(=O)c3ccc4c(c3)OCO4)c2cc1OC
- T/C [10]: 106 % of control
- T/C [15]: 88 % of control

Structure (SMILES): Cc1cc(OC(=O)Nc2cccc(Cl)c2C)ccc1[N+](=O)[O-]
- T/C (dose: 25.0 mg/kg/injection, schedule: Q01DX009 (ip), vehicle: saline with Tween-80): 104 % of control and 111 % of control
- T/C [16]: 97 % of control and 103 % of control
- T/C (dose: 100.0 mg/kg/injection, schedule: Q04DX002 (ip), vehicle: saline with Tween-80): 100 % of control and 107 % of control
- T/C [10]: 105 % of control
- T/C [17]: 89 % of control
- T/C (dose: 200.0 mg/kg/injection, schedule: Q04DX002 (ip), vehicle: saline with Tween-80): 101 % of control and 104 % of control
- T/C [15]: 100 % of control
- T/C (dose: 400.0 mg/kg/injection, schedule: Q04DX002 (ip), vehicle: saline with Tween-80): 93 % of control

Structure (SMILES): CC(C)(C)C(=O)CC(=O)C(C)(C)C.CC(C)(C)C(=O)CC(=O)C(C)(C)C.CC(C)(C)C(=O)CC(=O)C(C)(C)C.[Er]
- T/C [10]: 100 % of control
- T/C [15]: 97 % of control
- T/C [18]: 94 % of control

Structure (SMILES): COc1cc2c(cc1OC)[C@H]1CNC[C@H]1[C@@H](c1ccccc1)C2
- T/C [1]: 95 % of control
- T/C [3]: 106 % of control
- T/C (dose: 100.0 mg/kg/injection, schedule: Q04DX003 (ip), vehicle: saline): 97 % of control
- T/C [4]: 106 % of control
- T/C (dose: 200.0 mg/kg/injection, schedule: Q04DX003 (ip), vehicle: saline): 106 % of control

Structure (SMILES): COc1ccc(CC2C(=O)NC(C)C(=O)N(C)C3C(=O)N(C)C(Cc4ccc(O)c(c4)Oc4ccc(cc4)C3O)C(=O)NC(C)C(=O)NC(C)C(=O)N2C)cc1 (configuration not stated) (tested in a mixture with another compound)
- T/C (dose: 0.25 mg/kg/injection, schedule: Q01DX009 (ip), vehicle: saline): 112 % of control
- T/C (dose: 0.5 mg/kg/injection, schedule: Q01DX009 (ip), vehicle: carboxymethylcellulose (CMC)): 114 % of control
- T/C (dose: 0.5 mg/kg/injection, schedule: Q01DX009 (ip), vehicle: saline): 122 % of control
- T/C (dose: 1.0 mg/kg/injection, schedule: Q01DX009 (ip), vehicle: carboxymethylcellulose (CMC)): 115 % of control
- T/C (dose: 1.0 mg/kg/injection, schedule: Q01DX009 (ip), vehicle: saline): 120 % of control
- T/C (dose: 2.0 mg/kg/injection, schedule: Q01DX009 (ip), vehicle: carboxymethylcellulose (CMC)): 117 % of control
- T/C (dose: 2.0 mg/kg/injection, schedule: Q01DX009 (ip), vehicle: saline): 117 % of control

Structure (SMILES): CC1CCC(NCCOC(=O)c2ccc(N)cc2)CC1 (configuration not stated)
- T/C (dose: 75.0 mg/kg/injection, schedule: Q01DX001 (ip), vehicle: other): 94 % of control
- T/C (dose: 150.0 mg/kg/injection, schedule: Q01DX001 (ip), vehicle: other): 108 % of control

Structure (SMILES): CCOC(=O)CN(c1ccccc1-c1ccccc1)S(=O)(=O)c1ccc(C)cc1
- T/C (dose: 50.0 mg/kg/injection, schedule: Q01DX001 (ip), vehicle: other): 92 % of control
- T/C (dose: 100.0 mg/kg/injection, schedule: Q01DX001 (ip), vehicle: other): 89 % of control
- T/C (dose: 200.0 mg/kg/injection, schedule: Q01DX001 (ip), vehicle: other): 101 % of control
- T/C (dose: 400.0 mg/kg/injection, schedule: Q01DX001 (ip), vehicle: other): 101 % of control

Structure (SMILES): COc1ccc(C)cc1NC(=O)NC(=O)c1ccc(Cl)cc1
- T/C [16]: 88 % of control
- T/C [19]: 98 % of control
- T/C [17]: 95 % of control

Structure (SMILES): Nc1nc(N)c(CCCCc2ccccc2)c(-c2ccccc2)n1
- T/C [14]: 98 % of control
- T/C [7]: 95 % of control
- T/C [8]: 95 % of control

Structure (SMILES): O=[N+]([O-])c1cc([N+](=O)[O-])c2nc3ccccn3c2c1
- T/C [19]: 96 % of control
- T/C [17]: 102 % of control
- T/C (dose: 400.0 mg/kg/injection, schedule: Q01DX009 (ip), vehicle: saline with Tween-80): 107 % of control

Structure (SMILES): NC(=S)c1nn(C2OC(CO)C(O)C2O)c2ncnc(N)c12 (configuration not stated)
- T/C (dose: 0.78 mg/kg/injection, schedule: Q01DX009 (ip), vehicle: saline): 122 % of control
- T/C (dose: 3.12 mg/kg/injection, schedule: Q01DX009 (ip), vehicle: saline): 173 % of control
- T/C (dose: 6.25 mg/kg/injection, schedule: Q01DX009 (ip), vehicle: saline): 89 % of control

Structure (SMILES): CN(Cc1ccccc1Cl)C(=O)Nc1ccccc1
- T/C [7]: 101 % of control
- T/C [8]: 106 % of control
- T/C [9]: 101 % of control

Structure (SMILES): CCOC(=O)C1CC(C(=O)OCC)C(=O)C1=O (configuration not stated)
- T/C [10]: 100 % of control
- T/C [15]: 99 % of control
- T/C [18]: 86 % of control
